{"source": "the NIST ThermoML archive (doi:10.1016/j.jct.2015.07.042)", "test": "activity coefficient (dimensionless); of the first substance listed, at infinite dilution; xn = mol fraction of the nth substance listed", "conditions": "101 kPa, Liquid, Chromatography, x1 = 0", "note": "Numbers after ± are expanded uncertainties."}
{"smiles": "C1=CCCCC1", "note": "[cyclohexene] + CCCCn1cc[n+](C)c1.COP(=O)([O-])OC", "values": [{"measurement": "activity coefficient", "setting": "358.15 K", "result": "7.15 ± 0.49"}, {"measurement": "activity coefficient", "setting": "368.15 K", "result": "7.13 ± 0.49"}, {"measurement": "activity coefficient", "setting": "378.15 K", "result": "7.11 ± 0.48"}, {"measurement": "activity coefficient", "setting": "388.15 K", "result": "7.11 ± 0.48"}]}
{"smiles": "C=CCCCC", "note": "[hex-1-ene] + CCCCn1cc[n+](C)c1.[Cl-]", "values": [{"measurement": "activity coefficient", "setting": "358.15 K", "result": "61.7 ± 4.2"}, {"measurement": "activity coefficient", "setting": "368.15 K", "result": "57.9 ± 4"}, {"measurement": "activity coefficient", "setting": "378.15 K", "result": "53.9 ± 3.7"}, {"measurement": "activity coefficient", "setting": "388.15 K", "result": "52 ± 3.6"}]}
{"smiles": "COC(C)(C)C", "note": "[2-methoxy-2-methylpropane] + CCCCn1cc[n+](C)c1.CS(=O)(=O)[O-]", "values": [{"measurement": "activity coefficient", "setting": "358.15 K", "result": "17 ± 1.2"}, {"measurement": "activity coefficient", "setting": "368.15 K", "result": "17.4 ± 1.2"}, {"measurement": "activity coefficient", "setting": "378.15 K", "result": "17.9 ± 1.2"}, {"measurement": "activity coefficient", "setting": "388.15 K", "result": "18.6 ± 1.3"}]}
{"smiles": "C=CCCCC", "note": "[hex-1-ene] + CCCCn1cc[n+](C)c1.CS(=O)(=O)[O-]", "values": [{"measurement": "activity coefficient", "setting": "358.15 K", "result": "39.7 ± 2.7"}, {"measurement": "activity coefficient", "setting": "368.15 K", "result": "40 ± 2.7"}, {"measurement": "activity coefficient", "setting": "378.15 K", "result": "40 ± 2.7"}, {"measurement": "activity coefficient", "setting": "388.15 K", "result": "40.3 ± 2.8"}]}
{"smiles": "CCC(C)O", "note": "(configuration not stated) [butan-2-ol] + CCCCn1cc[n+](C)c1.CS(=O)(=O)[O-]", "values": [{"measurement": "activity coefficient", "setting": "398.15 K", "result": "1.11 ± 0.071"}, {"measurement": "activity coefficient", "setting": "408.15 K", "result": "1.18 ± 0.075"}, {"measurement": "activity coefficient", "setting": "418.15 K", "result": "1.25 ± 0.081"}, {"measurement": "activity coefficient", "setting": "428.15 K", "result": "1.33 ± 0.087"}]}
{"smiles": "CCCC(=O)OC", "note": "[methyl butanoate] + CCCCn1cc[n+](C)c1.COP(=O)([O-])OC", "values": [{"measurement": "activity coefficient", "setting": "358.15 K", "result": "4.93 ± 0.34"}, {"measurement": "activity coefficient", "setting": "368.15 K", "result": "5.04 ± 0.34"}, {"measurement": "activity coefficient", "setting": "378.15 K", "result": "5.17 ± 0.35"}, {"measurement": "activity coefficient", "setting": "388.15 K", "result": "5.39 ± 0.37"}]}
{"smiles": "CCOC(C)=O", "note": "[ethyl acetate] + CCCCn1cc[n+](C)c1.[Cl-]", "values": [{"measurement": "activity coefficient", "setting": "358.15 K", "result": "9.02 ± 0.62"}, {"measurement": "activity coefficient", "setting": "368.15 K", "result": "9.06 ± 0.62"}, {"measurement": "activity coefficient", "setting": "378.15 K", "result": "9.1 ± 0.62"}, {"measurement": "activity coefficient", "setting": "388.15 K", "result": "9.16 ± 0.62"}]}
{"smiles": "C1CCCCCCC1", "note": "[cyclooctane] + CCCCn1cc[n+](C)c1.COP(=O)([O-])OC", "values": [{"measurement": "activity coefficient", "setting": "358.15 K", "result": "18.8 ± 1.3"}, {"measurement": "activity coefficient", "setting": "368.15 K", "result": "18.2 ± 1.2"}, {"measurement": "activity coefficient", "setting": "378.15 K", "result": "17.7 ± 1.2"}, {"measurement": "activity coefficient", "setting": "388.15 K", "result": "17.3 ± 1.2"}]}
{"smiles": "CCO", "note": "[ethanol] + CCCCn1cc[n+](C)c1.[Cl-]", "values": [{"measurement": "activity coefficient", "setting": "398.15 K", "result": "0.297 ± 0.031"}, {"measurement": "activity coefficient", "setting": "408.15 K", "result": "0.313 ± 0.031"}, {"measurement": "activity coefficient", "setting": "418.15 K", "result": "0.332 ± 0.032"}, {"measurement": "activity coefficient", "setting": "428.15 K", "result": "0.353 ± 0.032"}]}
{"smiles": "CCC(C)(C)OC", "note": "[2-methoxy-2-methylbutane] + CCCCn1cc[n+](C)c1.[Cl-]", "values": [{"measurement": "activity coefficient", "setting": "358.15 K", "result": "34 ± 2.3"}, {"measurement": "activity coefficient", "setting": "368.15 K", "result": "33.1 ± 2.3"}, {"measurement": "activity coefficient", "setting": "378.15 K", "result": "32.2 ± 2.2"}, {"measurement": "activity coefficient", "setting": "388.15 K", "result": "32.1 ± 2.2"}]}
{"smiles": "C1COCCO1", "note": "[1,4-dioxane] + CCCCn1cc[n+](C)c1.COP(=O)([O-])OC", "values": [{"measurement": "activity coefficient", "setting": "358.15 K", "result": "2.13 ± 0.14"}, {"measurement": "activity coefficient", "setting": "368.15 K", "result": "2.19 ± 0.15"}, {"measurement": "activity coefficient", "setting": "378.15 K", "result": "2.25 ± 0.15"}, {"measurement": "activity coefficient", "setting": "388.15 K", "result": "2.37 ± 0.16"}]}
{"smiles": "C#CCCCCC", "note": "[1-heptyne] + CCCCn1cc[n+](C)c1.[Cl-]", "values": [{"measurement": "activity coefficient", "setting": "358.15 K", "result": "11.6 ± 0.79"}, {"measurement": "activity coefficient", "setting": "368.15 K", "result": "12.3 ± 0.84"}, {"measurement": "activity coefficient", "setting": "378.15 K", "result": "12.7 ± 0.87"}, {"measurement": "activity coefficient", "setting": "388.15 K", "result": "13.3 ± 0.91"}]}
{"smiles": "CCCOCCC", "note": "[dipropyl ether] + CCCCn1cc[n+](C)c1.CS(=O)(=O)[O-]", "values": [{"measurement": "activity coefficient", "setting": "358.15 K", "result": "38.1 ± 2.6"}, {"measurement": "activity coefficient", "setting": "368.15 K", "result": "38.7 ± 2.6"}, {"measurement": "activity coefficient", "setting": "378.15 K", "result": "38.9 ± 2.7"}, {"measurement": "activity coefficient", "setting": "388.15 K", "result": "39.4 ± 2.7"}]}
{"smiles": "Cc1ccccc1C", "note": "[1,2-dimethylbenzene] + CCCCn1cc[n+](C)c1.COP(=O)([O-])OC", "values": [{"measurement": "activity coefficient", "setting": "358.15 K", "result": "5.54 ± 0.38"}, {"measurement": "activity coefficient", "setting": "368.15 K", "result": "5.7 ± 0.39"}, {"measurement": "activity coefficient", "setting": "378.15 K", "result": "5.79 ± 0.39"}, {"measurement": "activity coefficient", "setting": "388.15 K", "result": "6.03 ± 0.41"}]}
{"smiles": "C1CCCCC1", "note": "[cyclohexane] + CCCCn1cc[n+](C)c1.CS(=O)(=O)[O-]", "values": [{"measurement": "activity coefficient", "setting": "358.15 K", "result": "35.2 ± 2.4"}, {"measurement": "activity coefficient", "setting": "368.15 K", "result": "34.5 ± 2.4"}, {"measurement": "activity coefficient", "setting": "378.15 K", "result": "33.9 ± 2.3"}, {"measurement": "activity coefficient", "setting": "388.15 K", "result": "33.8 ± 2.3"}]}
{"smiles": "Cc1cccc(C)c1", "note": "[1,3-dimethylbenzene] + CCCCn1cc[n+](C)c1.COP(=O)([O-])OC", "values": [{"measurement": "activity coefficient", "setting": "358.15 K", "result": "6.49 ± 0.44"}, {"measurement": "activity coefficient", "setting": "368.15 K", "result": "6.6 ± 0.45"}, {"measurement": "activity coefficient", "setting": "378.15 K", "result": "6.73 ± 0.46"}, {"measurement": "activity coefficient", "setting": "388.15 K", "result": "7 ± 0.48"}]}
{"smiles": "CC#N", "note": "[acetonitrile] + CCCCn1cc[n+](C)c1.COP(=O)([O-])OC", "values": [{"measurement": "activity coefficient", "setting": "358.15 K", "result": "0.88 ± 0.06"}, {"measurement": "activity coefficient", "setting": "368.15 K", "result": "0.92 ± 0.06"}, {"measurement": "activity coefficient", "setting": "378.15 K", "result": "0.95 ± 0.06"}, {"measurement": "activity coefficient", "setting": "388.15 K", "result": "1 ± 0.06"}]}
{"smiles": "C=CCCCCCCCC", "note": "[1-decene] + CCCCn1cc[n+](C)c1.CS(=O)(=O)[O-]", "values": [{"measurement": "activity coefficient", "setting": "358.15 K", "result": "193 ± 13"}, {"measurement": "activity coefficient", "setting": "368.15 K", "result": "187 ± 13"}, {"measurement": "activity coefficient", "setting": "378.15 K", "result": "182 ± 12"}, {"measurement": "activity coefficient", "setting": "388.15 K", "result": "179 ± 12"}]}
{"smiles": "CCOCC", "note": "[diethyl ether] + CCCCn1cc[n+](C)c1.COP(=O)([O-])OC", "values": [{"measurement": "activity coefficient", "setting": "358.15 K", "result": "6.21 ± 0.42"}, {"measurement": "activity coefficient", "setting": "368.15 K", "result": "6.3 ± 0.43"}, {"measurement": "activity coefficient", "setting": "378.15 K", "result": "6.39 ± 0.44"}, {"measurement": "activity coefficient", "setting": "388.15 K", "result": "6.48 ± 0.44"}]}
{"smiles": "C1COCCO1", "note": "[1,4-dioxane] + CCCCn1cc[n+](C)c1.[Cl-]", "values": [{"measurement": "activity coefficient", "setting": "358.15 K", "result": "3.47 ± 0.24"}, {"measurement": "activity coefficient", "setting": "368.15 K", "result": "3.55 ± 0.24"}, {"measurement": "activity coefficient", "setting": "378.15 K", "result": "3.65 ± 0.25"}, {"measurement": "activity coefficient", "setting": "388.15 K", "result": "3.74 ± 0.25"}]}
{"smiles": "O", "note": "[water] + CCCCn1cc[n+](C)c1.CS(=O)(=O)[O-]", "values": [{"measurement": "activity coefficient", "setting": "398.15 K", "result": "0.2 ± 0.029"}, {"measurement": "activity coefficient", "setting": "408.15 K", "result": "0.214 ± 0.029"}, {"measurement": "activity coefficient", "setting": "418.15 K", "result": "0.228 ± 0.029"}, {"measurement": "activity coefficient", "setting": "428.15 K", "result": "0.239 ± 0.029"}]}
{"smiles": "COC(C)=O", "note": "[methyl ethanoate] + CCCCn1cc[n+](C)c1.CS(=O)(=O)[O-]", "values": [{"measurement": "activity coefficient", "setting": "358.15 K", "result": "2.94 ± 0.2"}, {"measurement": "activity coefficient", "setting": "368.15 K", "result": "3.03 ± 0.21"}, {"measurement": "activity coefficient", "setting": "378.15 K", "result": "3.14 ± 0.21"}, {"measurement": "activity coefficient", "setting": "388.15 K", "result": "3.33 ± 0.23"}]}
{"smiles": "CCC(C)(C)OC", "note": "[2-methoxy-2-methylbutane] + CCCCn1cc[n+](C)c1.CS(=O)(=O)[O-]", "values": [{"measurement": "activity coefficient", "setting": "358.15 K", "result": "23.8 ± 1.6"}, {"measurement": "activity coefficient", "setting": "368.15 K", "result": "24.2 ± 1.6"}, {"measurement": "activity coefficient", "setting": "378.15 K", "result": "24.7 ± 1.7"}, {"measurement": "activity coefficient", "setting": "388.15 K", "result": "25.3 ± 1.7"}]}
